Measured values as given in patent publication US20070270455A1, “INHIBITION OF NF-kB” (priority 2005, published 2007).

Legend:
HT1080ConALuc cells = test: p53-responsive luciferase reporter assay in HT1080 cells; type: cell-based, human
Excerpt: Bars represent folds of p53 responsive reporter induction over untreated controls. Box represents western blot analysis of p53 expression in total protein lysates of both cells variants in basal and doxorubicin treated conditions (to evaluate basal and DNA-damage induced level of p53). […] Fold induction presented as fold of reporter activation over untreated control. […] Fold induction presented as fold of reporter activation over untreated control.
For cotransfection set-up, 2×10^5 cells were plated into 6 well plates and, after overnight incubation, transfected with Lipofectamin Plus reagent (Gibco BRL) with 0.5 μg of reporter plasmids (p21-ConALuc or pNF-κBLuc) in combination with different concentrations of p53, Arf, Ss-IκB, or siHDM2 expressing plasmids. Corresponding empty vectors were added into all transfections up to 2 μg of total DNA amount. Normalization of transfection efficiency was done by adding 0.2 μg of pCMV-LacZ plasmid. Luciferase activity and β-galactosidase activity was measured in lysates prepared 48 hours after transfection with Cell Lysis Buffer (Promega) by luciferase assay system (Promega) or β-galactosidase enzyme system (Promega). Luminometric and colorimetric reactions were read on the Wallack 1420 plate reader (Perkin Elmer). Integrated reporter set-up. 2×10^4 of cells with integrated reporter were plated in 96 well plates. After overnights incubation chemical compounds or media from lentivirus producing cells were added. At different time points cell lysates were prepared using Reporter Lysis Buffer (Promega). Luciferase or β-galactosidase activity and protein concentration were measured in aliquots of cell lysates using standard kits (Promega, Luciferase and β-galactosidase assay systems, Biorad Protein Assay Kit).

H1299-NF-kBLuc cells = test: NF-κB-responsive luciferase reporter assay; type: cell-based
topoisomerase II = test: DNA—Topoisomerase II activity assay; type: cell-based; conditions: in vitro; HT1080 cells, 1 h
Procedure: (§1) Western blot analysis of total protein lysates was performed using antibodies against p53 (DO1) and against specific sites of phosphorylation in p53. […] HCT116 cells were treated for 30 minutes with 1 μM PS-341. PS-341 was washed off after 30 minutes and cells were re-incubated in drug free medium prior to analysis at 3 hours or 16 hours post-treatment. […] Proteasome activity was determined by measuring the absorbance of free AMC generated by cleavage of an AMC-fluorogenic peptide. The proteasome activity of untreated cells was set at 100%. […] Cell lysates were isolated at the indicated hours after treatment and used for western blotting. Blots were probed with antibodies specific for both phosphorylated and unphosphorylated forms of IκB-α. β-actin specific antibodies were used as a loading control.
HT1080 cells were labeled for 24 hours with 0.02 to 0.04 mCi/mL of [^14C] thymidine, specific activity 53 mCi/mmol (Amersham). […] The induction of topo II-mediated DNA scission was determined by measuring precipitation of the protein DNA complex using a modification of the SDS-KCl technique.

RCC45ConALacZ cells = test: p53-responsive reporter (ConALacZ) β-galactosidase assay in RCC45 cells; type: cell-based; conditions: compared with doxorubicin
Procedure: 2×10^4 of RCC45ConALacZ cells were plated into wells of 96 well plates in 200 μL of phenol-red free RPMI medium with standard additives. After overnight incubation library of chemical compounds in DMSO solution together with controls was added with the help of plastic bacterial replicators (200+/−100 nL). Final concentration of compounds was around 5 μg/ml. Negative control was DMSO, positive control was doxorubicin solution (0.2, 0.6 and 2 μM). After 24 hours lysis buffer with ONPG was added directly to the medium on ice. After 3 hours of incubation at 37° C., β-galactosidase activity was estimated by reading absorbance values Wallack 1420 plate reader (Perkin Elmer) at λ=430 nm.
For cotransfection set-up, 2×10^5 cells were plated into 6 well plates and, after overnight incubation, transfected with Lipofectamin Plus reagent (Gibco BRL) with 0.5 μg of reporter plasmids (p21-ConALuc or pNF-κBLuc) in combination with different concentrations of p53, Arf, Ss-IκB, or siHDM2 expressing plasmids. […] Luciferase activity and β-galactosidase activity was measured in lysates prepared 48 hours after transfection with Cell Lysis Buffer (Promega) by luciferase assay system (Promega) or β-galactosidase enzyme system (Promega). Luminometric and colorimetric reactions were read on the Wallack 1420 plate reader (Perkin Elmer). […]

IκB = test: Western blot of IκB level and phosphorylation; type: cell-based; conditions: PC-3 cells, 10 μM; MCF7 cells
Procedure: as §1, with “Blots were probed with antibodies specific for both phosphorylated and unphosphorylated forms of IκB-α. β-actin specific antibodies were used as a loading control.” left out
Cells were lysed in RIPA buffer (25 mM Tris HCl, pH7.2, 125 mM NaCl, 1% NP40, 1% sodium deoxycholate, 1 mM EDTA) containing 1 mM PMSF (Sigma), 10 μg/ml of aprotinin (Sigma) and 10 μg/ml of leupeptin (Sigma). Protein concentrations were determined with BioRad Dc protein assay kit. […] The following antibodies were used: anti-p53—monoclonal mouse DO1 (Santa-Cruz), anti-p21—monoclonal mouse F-5 (Santa-Cruz), anti-mdm2—monoclonal mouse SMP14 (Santa-Cruz). p53 phosphorylation status was analyzed using phospho-p53 sampler kit from Cell signaling according to manufacturer's recommendations, anti-p65—(C20, Santa Cruz), anti-phospho-p65—(ser536, Cell Signaling), anti-IκBa—(C21, Santa Cruz), anti-p50—(NLS, Santa Cruz). […]

[1] = tested on: HT1080-sip53 and HT1080-siGFP cells; test: Cell survival assay in isogenic cell pairs with anti-p53 or control siRNA; type: cell-based, human; conditions: anti-p53 vs control siRNA; maximum difference in HT1080 cells
[2] = tested on: HT1080 sip53 or HT1080 siGFP cells; test: Cell cycle analysis; type: cell-based, human
[3] = tested on: normal kidney epithelial cells and human diploid fibroblasts WI38; test: Cell survival assay in normal cells; type: cell-based
Procedure: The same experiment as described in FIG. 4A was performed with NKE, RCC45, RCC54 and ACHN cells.
5×10^3 of cells were plated in 6 well plates and treated with different concentrations of drugs for 24 hours. Then fresh drug-free medium was added. Number of colonies was estimated after 5-6 days of incubation. Cell survival was estimated as a percentage of intensity of methylene blue staining of treated cells, comparing with untreated control (methylene blue from stained colonies was extracted by 0.1% of SDS and quantitated spectrophotometrically).

[4] = after treatment with the drug, FIG. 3f

With Nc1c2ccccc2nc2ccccc12 [9AA, 9-aminoacridine] the “concentration at which p53 was activated” value (HT1080ConALuc cells; HT1080ConALuc cells, 24 hours) was at least 1 µM, the “time at which p53-dependent transactivation becomes detectable” value (HT1080ConALuc cells; [4]) was 12 h and the “time at which p53-dependent transactivation reaches maximum” value (HT1080ConALuc cells; [4]) was “around 36 hours”. The “TSA-stimulated NF-κB-dependent transcription” value (H1299-NF-kBLuc cells; 100 nM TSA) was “could not be blocked”, the NF-κB-responsive reporter activity (H1299-NF-kBLuc cells; basal and TNF-induced (10 ng/ml)) was “inhibited basal and TNF-induced activity of the reporter” and the “effect on topoisomerase II activity” value (topoisomerase II) was “no effect”. For the same compound, the “p53 reactivation / reporter induction (in words)” value (RCC45ConALacZ cells) was “much stronger than doxorubicin”, the “level of IκB” value (IκB) was “gradual decrease followed by complete disappearance of IκB” and the “toxicity in cells differing in p53 status” value [1] was “less toxic to the cells with reduced p53 expression”. For the same compound, the “effect on cell cycle” value ([2]; 3 μM) was “p53-dependent growth arrest”, the “effect on cell cycle” value ([2]; 20 μM) was “apoptosis” and the “sensitivity of normal cells compared with RCC and other tumor cells” value [3] was “more resistant to 9AA”.
